# From patent US20110118274A1, “PROTEASOME INHIBITORS AND THEIR USE IN TREATING PATHOGEN INFECTION AND CANCER” (CORNELL RESEARCH FOUNDATION, INC., priority 2007, published 2011)
# Like-named read-outs stand apart in the source and are kept apart here.
# What was measured:
# [1] = biological target: T1, Mtb proteasome (Mycobacterium tuberculosis, UniProt P9WHT9); assay: Preliminary inhibition studies of Mtb proteasome with oligopeptide substrates; assay type: biochemical
# T1 construct: made in house; host or cells: E. coli
# [2] = biological target: T2, Mtb PrcAB-OG (Mycobacterium tuberculosis, UniProt P9WHT9); assay: biochemical; assay type: biochemical
# T2 construct: made in house; host or cells: E. coli
# Target sequence in this assay (P9WHT9 58-291): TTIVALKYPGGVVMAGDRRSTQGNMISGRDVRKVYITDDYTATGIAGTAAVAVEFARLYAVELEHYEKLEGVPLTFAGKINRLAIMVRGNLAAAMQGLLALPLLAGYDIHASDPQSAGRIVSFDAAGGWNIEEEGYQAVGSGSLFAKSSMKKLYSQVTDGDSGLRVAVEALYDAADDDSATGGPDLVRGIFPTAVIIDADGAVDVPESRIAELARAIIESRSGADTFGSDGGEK
# [3] = tested on: Mtb PrcAB-OG; assay: biochemical; assay type: biochemical, Mycobacterium tuberculosis
# [4] = biological target: human 20S-β5 (Hu20S PA28) (Homo sapiens, UniProt P28074); assay: Kinetics of inhibition of human 20S proteasome β5 site in presence of PA28; assay type: biochemical
# [5] = tested on: M. bovis BCG; assay: microbe, parasite or virus in culture; assay type: cell-based, Mycobacterium bovis BCG; conditions: for reduction of colony forming units (CFU): cells exposed to DETA-NO 50 μM; for log reduction at 25 µM: Mycobacterium tuberculosis variant bovis BCG, BCG, 96 h, read-out: BCG killing (25 μM)
# [6] = tested on: Mtb H37Rv; assay: Mycobactericidal activity against Mtb (CFU); assay type: cell-based, Mycobacterium tuberculosis
# [7] = biological target: α-chymotrypsin (Bos taurus, UniProt P00766); assay: Inhibition of α-chymotrypsin; assay type: biochemical, mammalian
# Description: The unique inactivation mechanism of oxathiazol-2-ones led to an examination of selectivity of these compounds among non-proteasomal proteases, such as chymotrypsin, trypsin, cathepsin B, and matrix metalloproteinase (MMP)-2, representatives of the serine-, cysteine-, and matrix metalloproteinase classes. […] In contrast to the proteasome's N-terminal Thr active site residue, chymotrypsin's active site Ser residue is positioned internally. Given the lack of a terminal NH2 group, the acyl-enzyme intermediate formed by reaction of oxathiazol-2-one with the γ-OH of chymotrypsin's active site Ser can undergo either aqueous hydrolysis to reactivate the enzyme or regeneration of oxathiazol-2-one by the released —OH or —SH group attacking —CO-γO-Ser.
# [8] = biological target: T1, Mtb proteasome; assay type: biochemical; conditions: dialysis 18 hours against inhibitor-free buffer
# [9] = biological target: proteasome in M. bovis BCG (Mycobacterium bovis, UniProt A1KKF3); assay: cell-based; conditions: read-out: intrabacterial proteasome inhibition
# [10] = tested on: human skin fibroblasts; assay: Cytotoxicity, human skin fibroblasts; assay type: cell-based; conditions: up to 50 μM, 4 days
# Method: (§1) Given that proteasome-inhibiting oxathiazol-2ones killed mycobacteria, their impact on the survival of mammalian cells was tested. […] In contrast, less than 10% of Vero cells remained viable after 4-day exposure to 25 nM bortezomib. Finally, because most Mtb in nature resides in human macrophages, we exposed human monocyte-derived macrophages (mostly multinucleated giant cells) to 100 μM GL3, GL5 or GL6 for 7 days.
# [11] = tested on: human lung fibroblasts; assay: Cytotoxicity, human lung fibroblasts; assay type: cell-based; conditions: up to 50 μM, 4 days
# Method: as §1
# [12] = tested on: Vero monkey kidney epithelial cells; assay: Cytotoxicity, Vero cells; assay type: cell-based; conditions: for cytotoxicity: up to 50 μM, 4 days
# Method: as §1
# [13] = tested on: mouse macrophage-like RAW264.7 cells; assay: Cytotoxicity, RAW264.7 cells; assay type: cell-based; conditions: up to 50 μM, 4 days
# Method: as §1
# [14] = tested on: human monocyte-derived macrophages; assay: Cytotoxicity, human monocyte-derived macrophages; assay type: cell-based; conditions: 7 days
# Method: as §1
# [15] = biological target: T2, Mtb PrcAB-OG; assay type: biochemical
# Target sequence in this assay (P9WHT9 58-291): as above
# Target sequence in this assay (P9WHU1 9-248 partner, looked up, natural form): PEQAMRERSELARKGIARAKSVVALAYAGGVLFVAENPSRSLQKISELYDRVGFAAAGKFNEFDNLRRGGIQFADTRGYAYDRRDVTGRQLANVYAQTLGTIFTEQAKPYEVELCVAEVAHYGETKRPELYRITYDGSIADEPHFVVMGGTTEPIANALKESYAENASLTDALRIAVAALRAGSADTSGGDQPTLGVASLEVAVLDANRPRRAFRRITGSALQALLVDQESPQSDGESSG
# [16] = biological target: human proteasome (Homo sapiens, UniProt P28072+P28074+Q99436); assay: Preliminary inhibition studies of human proteasome with oligopeptide substrates
# [17] = Table 1, read-out: kobs/[I] Mtb-OG
# [18] = 50 μM, 4 days, Mtb exposed overnight to 100 μM DETA
# [19] = 50 μM, 4 days, Mtb exposed overnight to 100 μM DETA-NO
# [20] = Mycobacterium tuberculosis, H37RV, 96 h; read-out: Mtb killing (50 μM)
# T1 sequence (P9WHT9 58-291): as the sequence (P9WHT9 58-291) above
# T1 sequence (P9WHU1 9-248 partner, looked up, natural form): as the sequence (P9WHU1 9-248 partner, looked up, natural form) above
# Sequence of proteasome in M. bovis BCG (A1KKF3 whole entry, looked up): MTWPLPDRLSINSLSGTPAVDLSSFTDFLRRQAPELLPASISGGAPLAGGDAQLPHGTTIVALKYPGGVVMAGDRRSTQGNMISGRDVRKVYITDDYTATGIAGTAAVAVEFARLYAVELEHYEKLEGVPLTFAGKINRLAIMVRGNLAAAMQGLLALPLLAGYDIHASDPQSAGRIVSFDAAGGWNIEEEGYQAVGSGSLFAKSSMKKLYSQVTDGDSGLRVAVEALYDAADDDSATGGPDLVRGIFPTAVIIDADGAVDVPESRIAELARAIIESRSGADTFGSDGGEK
smiles,measurement,setting,value
"O=c1oc(-c2cnccn2)ns1 [5-(pyrazin-2-yl)-1,3,4-oxathiazol-2-one]",inhibition of Mtb proteasome,[1],"found to inhibit the Mtb proteasome, albeit less potently than GL5"
CSc1sc(C)cc1-c1nsc(=O)o1 [GL5],Hill coefficient (Mtb PrcAB-OG),[2],1
same,effect of substrate concentration on rate of inactivation,[2],Increasing substrate concentration reduced the rate of proteasome inactivation
same,kinact/K,"[2]; Mtb PrcAB-OG, corrected for substrate competition, […]",625 ± 12.2^b M^−1s^−1
same,kinact/KI,[2]; [17],376 M⁻¹ s⁻¹
same,kinact/KI,"[2]; corrected for substrate competition, read-out: kinact/K for GL5 vs Mtb proteasome",624 ± 12.2 M⁻¹ s⁻¹
same,kinact/KI,"[2]; slope of kobs vs [I], not corrected for substrate competition, read-out: apparent value of kobs/[I]",476 ± 9.3 M⁻¹ s⁻¹
same,improvement in species selectivity ratio relative to bortezomib,[3],~1160 fold
same,selectivity toward Mtb proteasome over human β5 proteasome subunit,[3],64 fold
same,Ratio,[3]; kobs/[I] Mtb-OG versus Hu20S PA28,1033
same,reversibility of inactivation of human proteasome β5 subunit,[4]; plots of kobs vs [I] not passing through origin,reversible
same,kinact/KI,[4]; read-out: kobs/[I] H20S-β5,9.8 ± 1.3 M⁻¹ s⁻¹
same,kinact/KI,[4]; read-out: kobs/[I] Hu20S PA28,0.4 M⁻¹ s⁻¹
same,reduction of colony forming units (CFU),"[5]; 25 μM, 4 days",400 fold
same,reduction of colony forming units (CFU),"[5]; 50 μM, 4 days",more than 2000 fold
same,log reduction at 25 µM,[5],> 2
same,killing of BCG,"[5]; alone and with DETA-NO 50 μM, 4 days",able to kill BCG
same,reduction of number of CFU,[6]; [18],not if they had been exposed to DETA
same,reduction of number of CFU,[6]; [19],47 fold
same,log reduction at 50 µM,"[6]; Mycobacterium tuberculosis, H37RV, 96 h, read-out: Mtb killing (50 μM)",1.4
same,IC50,[7],0.064 µM
same,Ki,"[7]; reversible, time-independent inhibition",0.064 µM
same,activity recovered after dialysis,[8],did not restore the activity
same,inhibition at 10 µM,[9],≥ 50%
same,cytotoxicity,[10],no evident cytotoxicity
same,cytotoxicity,[11],no evident cytotoxicity
same,cytotoxicity,[12],no evident cytotoxicity
same,cytotoxicity,[13],no evident cytotoxicity
same,morphologic sign of cytotoxicity,[14]; 100 μM,no morphologic sign of cytotoxicity
Cc1cc(-c2nsc(=O)o2)c(S(C)(=O)=O)s1 [GL6],reduction of number of CFU,[6]; [18],did not lead to a reduction of CFU
same,reduction of number of CFU,[6]; [19],did not lead to a reduction of CFU
same,prevention of β-casein degradation by Mtb proteasome,[15],but not GL6
same,cytotoxicity,[10],no evident cytotoxicity
same,cytotoxicity,[11],no evident cytotoxicity
same,cytotoxicity,[12],no evident cytotoxicity
same,cytotoxicity,[13],no evident cytotoxicity
same,morphologic sign of cytotoxicity,[14]; 100 μM,no morphologic sign of cytotoxicity
same,inhibition of Mtb proteasome,[1],inhibited neither
same,inhibition of human proteasome,[16],inhibited neither
O=c1oc(-c2cc([N+](=O)[O-])cs2)ns1 [HT1016],kinact/KI,[2]; [17],732 M⁻¹ s⁻¹
same,kinact/KI,[4]; read-out: kobs/[I] Hu20S PA28,12.3 M⁻¹ s⁻¹
same,log reduction at 25 µM,[5],> 3
same,log reduction at 50 µM,[6]; [20],2.2
same,IC50,[7],5.87 µM
O=c1oc(-c2ccc([N+](=O)[O-])cc2)ns1 [HT1041],kinact/KI,[2]; read-out: kobs/[I] Mtb-OG,598 M⁻¹ s⁻¹
same,kinact/KI,[4]; read-out: kobs/[I] Hu20S PA28,12.9 M⁻¹ s⁻¹
same,log reduction at 25 µM,[5],0.8
same,log reduction at 50 µM,[6]; [20],1.7
same,IC50,[7],2.08 µM
O=c1oc(-c2cccc([N+](=O)[O-])c2)ns1 [HT1042],kinact/KI,[2]; read-out: kobs/[I] Mtb-OG,729 M⁻¹ s⁻¹
same,kinact/KI,[4]; read-out: kobs/[I] Hu20S PA28,10.3 M⁻¹ s⁻¹
same,log reduction at 25 µM,[5],2
same,log reduction at 50 µM,[6]; [20],1.7
same,IC50,[7],3.14 µM
O=c1oc(-c2ccccn2)ns1 [HT1043],kinact/KI,[2]; read-out: kobs/[I] Mtb-OG,460 M⁻¹ s⁻¹
same,kinact/KI,[4]; read-out: kobs/[I] Hu20S PA28,0.2 M⁻¹ s⁻¹
same,log reduction at 25 µM,[5],1
same,log reduction at 50 µM,[6]; [20],1.8
same,IC50,[7],16.6 µM
Cc1ccc(-c2nsc(=O)o2)s1 [HT1044],kinact/KI,[2]; [17],1070 M⁻¹ s⁻¹
same,kinact/KI,[4]; read-out: kobs/[I] Hu20S PA28,148 M⁻¹ s⁻¹
same,log reduction at 25 µM,[5],1.7
same,log reduction at 50 µM,[6]; [20],2
same,IC50,[7],8.02 µM
COc1cccc(-c2nsc(=O)o2)c1 [HT1054],kinact/KI,[2]; read-out: kobs/[I] Mtb-OG,636 M⁻¹ s⁻¹
same,kinact/KI,[4]; read-out: kobs/[I] Hu20S PA28,14.8 M⁻¹ s⁻¹
same,log reduction at 25 µM,[5],> 3
same,log reduction at 50 µM,[6]; [20],2
same,IC50,[7],2.19 µM
O=c1oc(-c2cccc(F)c2)ns1 [HT1071],kinact/KI,[2]; read-out: kobs/[I] Mtb-OG,1060 M⁻¹ s⁻¹
same,kinact/KI,[4]; read-out: kobs/[I] Hu20S PA28,31.3 M⁻¹ s⁻¹
same,log reduction at 25 µM,[5],> 3
same,log reduction at 50 µM,[6]; [20],2.2
same,IC50,[7],2.67 µM
O=c1oc(-c2cccc(C(F)(F)F)c2)ns1 [HT1086],kinact/KI,[2]; [17],155 M⁻¹ s⁻¹
same,kinact/KI,[4]; read-out: kobs/[I] Hu20S PA28,0.4 M⁻¹ s⁻¹
same,IC50,[7],48.1 µM
O=c1oc(-c2ccco2)ns1 [HT1113],kinact/KI,[2]; [17],435 M⁻¹ s⁻¹
same,kinact/KI,[4]; read-out: kobs/[I] Hu20S PA28,10.1 M⁻¹ s⁻¹
same,log reduction at 25 µM,[5],1
same,log reduction at 50 µM,[6]; [20],2
same,IC50,[7],22.7 µM
Cc1ccc(-c2nsc(=O)o2)cc1 [HT1117],kinact/KI,[2]; [17],433 M⁻¹ s⁻¹
same,kinact/KI,[4]; read-out: kobs/[I] Hu20S PA28,53.4 M⁻¹ s⁻¹
same,IC50,[7],3.67 µM
Cc1cccc(-c2nsc(=O)o2)c1 [HT1118],kinact/KI,[2]; read-out: kobs/[I] Mtb-OG,133 M⁻¹ s⁻¹
same,kinact/KI,[4]; read-out: kobs/[I] Hu20S PA28,11.3 M⁻¹ s⁻¹
same,log reduction at 25 µM,[5],0.8
same,log reduction at 50 µM,[6]; [20],1.7
same,IC50,[7],15.8 µM
O=c1oc(-c2ccccc2)ns1 [HT1146],kinact/KI,[2]; [17],409 M⁻¹ s⁻¹
same,kinact/KI,[4]; read-out: kobs/[I] Hu20S PA28,31.3 M⁻¹ s⁻¹
same,IC50,[7],10 µM
COc1cc(OC)cc(-c2nsc(=O)o2)c1 [HT1147],kinact/KI,[2]; [17],45.8 M⁻¹ s⁻¹
same,IC50,[7],83.9 µM
Cc1sc(-c2nsc(=O)o2)cc1[N+](=O)[O-] [HT1171],kinact/KI,[2]; [17],3490 M⁻¹ s⁻¹
C[C@@]12OC(=O)[C@]1([C@@H](O)[C@@H]1C=CCCC1)NC(=O)[C@@H]2CCCl [NPI-0052],activity recovered after dialysis,[8],did not restore the activity
"CC(C)C[C@H](NC(=O)[C@H](Cc1ccccc1)NC(=O)c1cnccn1)B(O)O [bortezomib, reference compound]",activity recovered after dialysis,[8],70%
same,Vero cells remaining viable,"[12]; 25 nM, 4-day exposure",less than 10%
same,morphologic sign of cytotoxicity,[14]; 0.5 μM,rounded up or appeared to disintegrate
